Patent publication US20240247069A1, “FGFR3 BINDING MOLECULES AND METHODS OF USE THEREOF” (Regeneron Pharmaceuticals, Inc., priority 2023, published 2024)

Tests used:
Type in all cases: cell-based
Conditions in all cases: FGF1/heparin, 72 hours
[1] = tested on: BaF3 cells expressing FGFR3 S249C+V557M; experiment: BaF3 cell proliferation, FGFR3 S249C+V557M
Excerpt: (§1) cDNA expressing FGFR3 mutants (S249C, S248C, Y375C, V555M, V555L, S249C+V555M, or S249C+V555L) were synthesized and cloned into pLVX Lenti-viral vector (Thermo Fisher). Viral particles were generated by lipofectamine transfection of LentiX 293T cells using Lenti-X packaging single shots following manufacturer's protocol (Clontech/Takara) and concentrated using Lenti-X concentrator and titer determined using Lenti-X p24 rapid titer kit (Clontech/Takara). BaF3 cells were transduced with virus at ˜0.3 MOI.
(§2) For cell proliferation assays, engineered BaF3/hFGFR3 cells grown in complete medium were washed and plated in IL-3-free culture media±5 μg/ml heparin and 1 nM human FGF1. Cells were plated out at 1×10^5 cells/well into 96-well plates, followed by the addition of 1:3 serially diluted antibodies as indicated in figures. After addition of antibodies, cells were incubated at 37° C. for 72 h followed by the addition of CellTiter-Glo™ (Promega) reagent. The luminescent signal was detected by Envision plate reader (PerkinElmer). Data was analyzed using Prism software (GraphPad). […]

[2] = tested on: BaF3 cells expressing FGFR3 V557L; experiment: BaF3 cell proliferation, FGFR3 V557L
Excerpt: as §1, §2

[3] = tested on: BaF3 cells expressing FGFR3 S249C+V557L; experiment: BaF3 cell proliferation, FGFR3 S249C+V557L
Excerpt: as §1, §2

[4] = tested on: BaF3 cells expressing FGFR3 V557M; experiment: BaF3 cell proliferation, FGFR3 V557M
Excerpt: as §1, §2

AZD4547 [reference compound]
ineffective: effect on growth of BaF3 cells expressing FGFR3 S249C+V557M [1] | effect on growth of BaF3 cells expressing FGFR3 V557L [2] | effect on growth of BaF3 cells expressing FGFR3 S249C+V557L [3] | effect on growth of BaF3 cells expressing FGFR3 V557M [4]
